Where two headings read alike, the source gives them in different places.
Columns and labels:
[1] = tested on: SCC9 cells; experiment: MTT cell viability assay, SCC9 oral cancer cells; type: cell-based, human; details: for IC50: MTT; for SCC9 S.I.: selective index = IC50 HGF / IC50 SCC9; for dose-dependent cytotoxicity: SCC9, MTT
Method: (§1) Human SCC-4, SCC-9, and SCC-25 cells derived from a human oral tongue SCC (squamous cell carcinoma) were obtained from the ATCC (CRL-1624, CRL-1629, and CRL-1628, respectively) and maintained in 1:1 DMEM/F12 (Dulbecco’s modified Eagle medium and Ham’s F12 medium; Gibco (Thermo Fisher, Waltham, MA, USA)) supplemented with 10% (v/v) FBS (fetal bovine serum; Invitrogen, Thermo Fisher, Waltham, MA, USA) and 400 ng/mL hydrocortisone (Sigma-Aldrich Co., St. Louis, MO, USA). Primary normal human gingival fibroblasts were obtained from the ATCC (PCS-201-018; HGF) and maintained in DMEM supplemented with 10% (v/v) FBS and were used in a maximum of six passages. The cells were grown in a humidified environment containing 5% CO2 at 37 °C. For all biological experiments, the compounds and control nutlin 3a were solubilized in 100% DMSO (all Sigma-Aldrich) to a final concentration of 10 mM. Carboplatin stock was prepared in water (Fauldcarbo®; LibbsFarmacêutica, São Paulo, SP, Brazil) and was used as a standard anticancer compound.
(§2) The viability of SCC cell lines, HT-29, HCT-116, HEP2G and primary human fibroblast cells was evaluated using the MTT assay as in [26]. Briefly, the cells were grown in duplicates in 96-well plates (5 × 10^3 cells/well) until confluence. Then, the medium was removed, fresh medium was added, and the cells were returned to the incubator in the presence of different compounds. DMSO at the same concentrations was used as a 100% cell viability control. After 48 h, the cells were incubated with 5 mg/mL MTT reagent (3-(4,5-dimethyl-2-thiazolyl)-2,5-diphenyl-2-H-tetrazolium bromide) (Sigma-Aldrich Co., St. Louis, MO, USA) for 3.5 h. After that, formazan crystals were dissolved in MTT solvent solution (DMSO/methanol 1:1 v/v), and the absorbance at 560 nm was evaluated using an EPOCH microplate spectrophotometer (BioTek Instruments, Winooski, VT, USA) with the background absorbance at 670 nm subtracted. Each of the six compounds was tested at six or seven different concentrations, ranging from 0.3 µM to 200 µM in cancer cell lines (SCC-4, SCC-9 and SCC-25) and 0.3 µM to 200 µM in primary normal human gingival fibroblasts. Controls (carboplatin, nutlin 3a) were tested at six or seven different concentrations ranging from 0.05 µM to 1000 µM in cancer cells and normal cells, depending on the compound.
(§3) The data are presented as means ± SD. IC values for the MTT assays were obtained by nonlinear regression using the […] 5.0 program (Intuitive Software for Science, San Diego, CA, USA) from at least three independent experiments. A dose–response (inhibitor) vs. response curve using the least squares method was used to determine the IC50, SD, and R^2 of the data. The selectivity index was calculated as SI = IC50 of the compound in normal oral fibroblast cells/IC50 of the same compound for each cancer cell line (SCC-4, SCC-9, SCC-25, HCT-116, HT29 and HEP2G), and the mean was calculated when indicated.
Initially, the six chalcones (1a–f) were submitted to the MTT assay to evaluate their cytotoxicity. The assay was performed using the oral cancer cell line SCC9, and the results were analyzed by a non-linear regression curve to determine the value of the half maximal inhibitory concentration (IC50). As controls, known chemotherapeutic agents were used, namely carboplatin, routinely used in the treatment of oral cancer, and doxorubicin, widely used for other types of cancers.

[2] = Solubility observed during in vitro testing; type: physicochemical; details: in vitro cytotoxicity testing
[3] = tested on: Primary Gingival Fibroblast (HGF); experiment: MTT cell viability assay, primary normal gingival fibroblasts; type: cell-based, human; details: 48 h
Method: as §1, §2, §3

[4] = tested on: HT29 (adenocarcinoma); experiment: MTT cell viability assay, HT29; type: cell-based
Method: as §2, §3

[5] = tested on: SCC25 cells; experiment: MTT cell viability assay, SCC25 cells; type: cell-based, human; details: for IC50: 48 h, MTT; for SCC25 S.I.: selective index = IC50 HGF / IC50 SCC25
Method: as §1, §2, §3

[6] = tested on: SCC4 cells; experiment: MTT cell viability assay, SCC4 cells; type: cell-based, human; details: for IC50: 48 h, MTT; for SCC4 S.I.: selective index = IC50 HGF / IC50 SCC4
Method: as §1, §2, §3

[7] = tested on: Oral Tumor Cells (SCC9, SCC25, SCC4); experiment: MTT assay, average over oral tumor cells; type: cell-based, human; details: for IC50: mean of SCC9, SCC25, SCC4; for Average S.I.: IC50 of normal primary fibroblasts / average IC50 of tumor cells
Method: as §2, §3

[8] = Homo sapiens, SCC-9, 48 h, SCC9, 48 h, read-out: IC50
[9] = Homo sapiens, SCC-9, 48 h, 48 h, read-out: SCC9 IC50

SMILES | IC50 [1, 8] | solubility (in words) [2] | melting point | SCC9 S.I. [1] | SCC25 S.I. [5] | SCC4 S.I. [6] | Average S.I. [7] | other results
Nc1ccccc1C(=O)/C=C/c1cnn(-c2ccccc2)n1 [1a, (E)-1-(2-Aminophenyl)-3-(2-phenyl-2H-1,2,3-triazol-4-yl)prop-2-en-1-one] | 9.95 µM | formed highly insoluble well-structured crystals at low concentrations | 128 to 130 °C |  |  |  |  | 
COc1ccc(C2=N[C@@H](c3ccc(Cl)cc3)[C@@H](c3ccc(Cl)cc3)N2C(=O)N2CCNC(=O)C2)c(OC(C)C)c1 [nutlin-3a, reference compound] |  |  |  | 2.72 |  |  |  | IC50 ([1]; 48 h, read-out: SCC9 IC50): 18 µM; IC50 [3]: 49.1 µM; IC50 ([4]; 48 h, MTT): 6.79 µM; HT29 S.I. ([4]; IC50 HGF / IC50 HT29): 7.22
Nc1ccccc1C(=O)/C=C/c1cn(-c2ccc([N+](=O)[O-])cc2)nn1 [1d, (E)-1-(2-Aminophenyl)-3-(1-(4-nitrophenyl)-1H-1,2,3-triazol-4-yl)prop-2-en-1-one] |  |  | 253 to 255 °C |  |  |  |  | dose-dependent cytotoxicity [1]: all presented dose-dependent cytotoxicity, except
CCOC(=O)c1ccc(-n2cc(/C=C/C(=O)c3ccccc3N)nn2)cc1 [1e, Ethyl(E)-4-(4-(3-(2-aminophenyl)-3-oxoprop-1-en-1-yl)-1H-1,2,3-triazol-1-yl)benzoate] |  |  | 220 to 222 °C |  |  |  |  | dose-dependent cytotoxicity [1]: all presented dose-dependent cytotoxicity, except
COc1ccc(-n2cc(/C=C/C(=O)c3ccccc3N)nn2)cc1 [1c, (E)-1-(2-Aminophenyl)-3-(1-(4-methoxyphenyl)-1H-1,2,3-triazol-4-yl)prop-2-en-1-one] | 9.32 µM | formed highly insoluble well-structured crystals at low concentrations | 174 to 176 °C |  |  |  |  | 
COc1cccc2c1C(=O)c1c(O)c3c(c(O)c1C2=O)C[C@@](O)(C(=O)CO)C[C@@H]3O[C@H]1C[C@H](N)[C@H](O)[C@H](C)O1 [Doxorubicin, doxorubicin, reference compound] | 2.99 µM |  |  | 1.16 | 3.86 | 6.09 | 2.34 | IC50 [1, 9]: 2.99 µM; IC50 ([5]; Homo sapiens, SCC-25): 0.9 µM; IC50 ([6]; Homo sapiens, SCC-4): 0.57 µM; IC50 ([3]; Homo sapiens, Fibroblast): 3.47 µM; IC50 ([7]; Homo sapiens): 1.49 µM
Nc1ccccc1C(=O)/C=C/c1cn(-c2ccccc2)nn1 [1b, (E)-1-(2-Aminophenyl)-3-(1-phenyl-1H-1,2,3-triazol-4-yl)prop-2-en-1-one] | 12.7 µM | highly soluble | 183 to 185 °C | 2.80 | 2.85 | 2.83 | 2.82 | IC50 [1, 9]: 12.7 µM; IC50 ([5]; Homo sapiens, SCC-25): 12.5 µM; IC50 ([6]; Homo sapiens, SCC-4): 12.6 µM; IC50 ([3]; Homo sapiens, Fibroblast): 35.7 µM; IC50 ([7]; Homo sapiens): 12.6 µM
N.N.O=C([O-])C1(C(=O)[O-])CCC1.[Pt+2] [Carboplatin, carboplatin, reference compound] |  |  |  | 2.15 | 1.75 | 2.26 | 2.03 | IC50 ([1]; 48 h, read-out: SCC9 IC50): 156 µM; IC50 ([1]; SCC9, 48 h, read-out: IC50): 156 µM; IC50 [5]: 191 µM; IC50 [6]: 148 µM; IC50 [3]: 335 µM; IC50 [7]: 165 µM
